Activity calls are given as the source filed them. The calls are words filed in the database; no cut-off is given here.
molecular target: T1, Interleukin-8 receptors, CXCR1/CXCR2 (Homo sapiens, UniProt P25025+P25024); test: Inhibition of CXCL8-induced chemotaxis in human polymorphonuclear cells; assay type: functional
T1 sequence (P25025 whole entry): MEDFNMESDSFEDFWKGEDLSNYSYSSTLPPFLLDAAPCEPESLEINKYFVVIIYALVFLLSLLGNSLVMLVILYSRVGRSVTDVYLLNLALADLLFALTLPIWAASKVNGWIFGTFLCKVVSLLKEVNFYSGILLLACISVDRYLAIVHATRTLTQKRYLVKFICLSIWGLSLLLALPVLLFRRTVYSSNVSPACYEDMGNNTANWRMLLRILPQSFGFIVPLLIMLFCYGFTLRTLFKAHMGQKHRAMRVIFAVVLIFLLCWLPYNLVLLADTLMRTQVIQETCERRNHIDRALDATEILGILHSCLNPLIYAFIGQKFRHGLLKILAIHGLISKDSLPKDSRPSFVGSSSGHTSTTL
T1 sequence (P25024 whole entry): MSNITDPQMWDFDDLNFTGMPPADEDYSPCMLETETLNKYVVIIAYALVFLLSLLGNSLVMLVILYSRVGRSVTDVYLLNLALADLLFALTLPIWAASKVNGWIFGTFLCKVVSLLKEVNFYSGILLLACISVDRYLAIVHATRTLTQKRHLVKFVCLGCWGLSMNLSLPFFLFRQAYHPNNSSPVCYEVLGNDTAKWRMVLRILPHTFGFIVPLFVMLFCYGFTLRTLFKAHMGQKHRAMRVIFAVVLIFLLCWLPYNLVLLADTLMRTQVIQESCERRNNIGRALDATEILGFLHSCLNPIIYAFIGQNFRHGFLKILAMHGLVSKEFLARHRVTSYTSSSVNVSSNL

| Structure (SMILES) | IC50 |
| --- | --- |
| CONC(=O)[C@H](C)c1ccc(CC(C)C)cc1 | 1.8 nM |

molecular target: T2, Interleukin-8 receptors, CXCR1/CXCR2 (Homo sapiens) (UniProt P25025+P25024); test: Inhibition of CXCL8-induced chemotaxis of human polymorphonuclear cells at 10e-6 M: not active; assay type: functional

| Structure (SMILES) | inhibition |
| --- | --- |
| CC(C(=O)NS(C)(=O)=O)c1ccc2c(c1)[nH]c1ccc(Cl)cc12 (centres undefined) | inactive |

molecular target: T2, Interleukin-8 receptors, CXCR1/CXCR2 (Homo sapiens); test: Inhibition of CXCL8-induced chemotaxis of human polymorphonuclear cells at 10e-8 M: not active; assay type: functional

| Structure (SMILES) | inhibition |
| --- | --- |
| CC(C(=O)O)c1ccc(-c2ccccc2)cc1 (centres undefined) | inactive |
| CC(C(=O)O)c1ccc(C(C)(C)C)cc1 (centres undefined) | inactive |
| COC(=O)CNC(=O)[C@H](C)c1ccc(CC(C)C)cc1 | inactive |
| CC(C)Cc1ccc([C@@H](C)C(=O)NS(=O)(=O)CCCN)cc1 | inactive |
| CC(C(=O)O)c1ccc(-c2cccs2)cc1 (centres undefined) | inactive |
| CC(C)Cc1ccc([C@@H](C)C(=O)N(C)C)cc1 | inactive |
| CC(C)Cc1ccc([C@@H](C)C(=O)NCCCN)cc1 | inactive |
| COC(=O)[C@@H](C)NC(=O)[C@H](C)c1ccc(CC(C)C)cc1 | inactive |
| CC(C(=O)O)c1ccc(O)cc1 (centres undefined) | inactive |
| CC(C(=O)O)c1ccc(CC2CCCCC2)cc1 (centres undefined) | inactive |
| CC(C)Cc1ccc([C@@H](C)C(=O)NCCC(=O)O)cc1 | inactive |
| CC(C(=O)O)c1ccc(Cc2ccccc2)cc1 (centres undefined) | inactive |
| CC(C)Cc1ccc([C@@H](C)C(=O)NS(=O)(=O)CCCN2C(=O)c3ccccc3C2=O)cc1 | inactive |
| CC(C)Cc1ccc([C@@H](C)C(=O)NC2CCOCC2)cc1 | inactive |
| CC(C)Cc1ccc([C@@H](C)C(=O)NCCC[N+](C)(C)C)cc1 | inactive |
| COC(=O)C(C)c1ccc(CC(C)C)cc1 (centres undefined) | inactive |
| C/C=C/c1cccc(C(C)C(=O)O)c1 (centres undefined) | inactive |

Next, values leading:

| inhibition | Structure (SMILES) |
| --- | --- |
| inactive | CC(C)Cc1cccc(C(C)C(=O)O)c1 (centres undefined) |
| inactive | CC(C)Cc1ccc([C@@H](C)C(=O)N[C@H](CS)C(=O)O)cc1 |
| inactive | CC(C)Cc1ccc([C@@H](C)C(=O)NC2CCN(C)C2)cc1 (some centres undefined) |
| inactive | CC(C)Cc1ccc([C@@H](C)C(=O)NS(=O)(=O)c2ccccc2)cc1 |
| inactive | CC(C)Cc1ccc([C@@H](C)C(=O)NCCCCCO)cc1 |
| inactive | CC(C)Cc1ccc([C@@H](C)C(=O)NS(=O)(=O)Cc2cccnc2)cc1 |
| inactive | CC(C)Cc1ccc([C@@H](C)C(=O)NS(=O)(=O)Cc2ccc(Cl)cc2)cc1 |
| inactive | CCCCc1cccc(C(C)C(=O)O)c1 (centres undefined) |
| inactive | CC(C(=O)O)c1cccc(C(=O)O)c1 (centres undefined) |
| inactive | CC(=O)c1cccc(C(C)C(=O)O)c1 (centres undefined) |
| inactive | CC(C)Cc1ccc([C@@H](C)C(=O)NC(C)C(=O)O)cc1 (single isomer, unassigned) |
| inactive | CC(C)Cc1ccc([C@@H](C)C(=O)N2CCCCC2)cc1 |
| inactive | CC(C)Cc1ccc([C@@H](C)C(=O)NC2CCOC2)cc1 (some centres undefined) |
| inactive | CC(C)Cc1ccc([C@@H](C)C(=O)NCCCC(=O)O)cc1 |
| inactive | CC(C)Cc1ccc([C@@H](C)C(=O)NS(=O)(=O)C(F)(F)F)cc1 |

molecular target: T2, Interleukin-8 receptors, CXCR1/CXCR2 (Homo sapiens); test: Inhibition of interleukin-8 induced chemotaxis of human polymorphonuclear cells at 10 nM

| Structure (SMILES) | inhibition |
| --- | --- |
| C[C@@H](C(=O)NS(C)(=O)=O)c1ccc(-c2ccccc2)c(F)c1 | 30% |
| CC(C)c1ccc(C(C)C(=O)O)cc1 (centres undefined) | 32% |
| C[C@H](C(=O)NS(C)(=O)=O)c1ccc(-c2ccccc2)c(F)c1 | 19% |
| CCNC(=O)[C@H](C)c1ccc(CC(C)C)cc1 | 26% |
| CCC(C)c1cccc(C(C)C(=O)O)c1 (centres undefined) | 50% |

More lines, now with the values ahead:

| inhibition | Structure (SMILES) |
| --- | --- |
| 40% | CCS(=O)(=O)NC(=O)[C@H](C)c1ccc(CC(C)C)cc1 |
| 40% | CNC(=O)[C@H](C)c1ccc(CC(C)C)cc1 |
| 30% | CC(C(=O)O)c1cccc(Cc2ccccc2)c1 (centres undefined) |
| 38% | CC(C)Oc1ccc(C(C)C(=O)O)cc1 (centres undefined) |
| 30% | CC(C)Cc1ccc([C@@H](C)C(=O)Nc2ccccc2)cc1 |

— ChEMBL document CHEMBL1145151, “2-Arylpropionic CXC chemokine receptor 1 (CXCR1) ligands as novel noncompetitive CXCL8 inhibitors” (J Med Chem, 2005)
